The record followed here is patent publication US20100298420A1, “Compositions and Methods for Intracellular Delivery” (Yissum, Research Development Company of the Hebrew …, priority 2001, published 2010).

Format in all cases: cell-based
In assay [1] the test system is Swiss albino mouse fibroblast cells (3T3). Description: CLSM experiment: intracellular delivery of fluorescent probes. As for the experimental part:
Subconfluent Swiss albino mouse fibroblast cells (3T3) were grown in Dulbeco's Modified Eagles Medium (DMEM) on coverslips in wells of 3.5 cm in diameter for Confocal Laser Scanning Microscopy (CLSM) and in six-well plastic plates for flow cytometric analysis. The cells were washed twice with phosphate buffered saline (PBS), adjusted to 37° C. in the incubator, and washed again. Two ml of PBS were added to each well and 50 μl of the test solution was added (Compositions I-III, control systems A-B or any compositions containing PC*, RR or D-289 listed above). […] The coverslip were observed under a Sarastro-Phibos1000 CLS microscope equipped with a 488 nm argon ion laser beam and attached to a Universal Zeiss epifluorescence microscopy with an oil immerse Planapo 63×1.4 NA objective lens. Fluorescence emission was detected above 560 nm for RR, at 527 nm for D-289 and […] for calcein.

Assay [2] has as its system Bacillus Subtilis ATCC-6633. Description: Susceptibility testing, zone of inhibition on agar. To be noted: 37° C., 24 h. The protocol:
(§1) Various concentrations of erythromycin in sterile water (1.25, 7.5, 10, 12.5 μg/ml) The bacterial strains used were:
(§2) Each erythromycin concentration was mixed with Composition I, Composition II and Standard solution with phosphate buffer saline (PBS, Biological Industries, Beit HaEmek Israel 1:1 by volume. 20 μl of Compositions I-II and standards containing various antibiotic concentrations was added to 6 mm wells on Petri plates containing Tryptic Soy Agar (TSA) inoculated with the microorganisms. The preparation was incubated aerobically at 37° C. for 24 h. The zone of inhibition for each sample was measured.

Assay [3] deals with Staphylococcus Aureus erythromycin resistant (clinical strain). The experiment in a line: Susceptibility testing, zone of inhibition on agar. To be noted: 37° C., 24 h. The protocol: as §1, §2
Assay [4] has as its system Staphylococcus Aureus ATCC-29213. The experiment in a line: Susceptibility testing, zone of inhibition on agar. The settings on record: 37° C., 24 h, in mm. The protocol:
as §1, §2

Setting [5] is: Erythromycin conc. 10 microgram/ml.

Regarding `CCN(CC)c1ccc(C=Cc2cc[n+](C)cc2)cc1.[I-]` [Composition D-289, 4-(4-diethylamino)styryl-N-methylpyridinium iodode], the “Fluorescence in the nucleus of the cell” value in assay [1] was “fluorescence was also observed in the nucleus”.
Compound `CC[C@H]1OC(=O)[C@H](C)[C@@H](O[C@H]2C[C@@](C)(OC)[C@@H](O)[C@H](C)O2)[C@H](C)[C@@H](O[C@@H]2O[C@H](C)C[C@H](N(C)C)[C@H]2O)[C@](C)(O)C[C@@H](C)C(=O)[C@H](C)[C@@H](O)[C@]1(C)O` [Standard, Erythromycin] registered a zone of inhibition at 1.25 µg/mL in assay [2] (ATCC6633, Erythromycin conc. 1.25 microgram/ml) of 7.83 ± 0.26 mm. The zone of inhibition at 7.5 µg/mL in assay [2] (ATCC6633, Erythromycin conc. 7.5 microgram/ml) was 13.6 ± 0.38 mm. Further, in assay [3] (setting [5]), the zone of inhibition at 10 µg/mL was found to be 0 mm. In addition, the zone of inhibition at 12.5 µg/mL in assay [3] (Erythromycin conc. 12.5 microgram/ml) was determined as 7.67 ± 0.26 mm. The results for the Zone of inhibition in assay [4] (Erythromycin conc. 1.25 microgram/ml) and in assay [4] (setting [5]) were 0 and 13.67 ± 026, respectively.
